{
  "source": "patent US5318858A",
  "about": "“Antacid composition” (priority 1992, dated 1994)",
  "key": {"[1]": {"assay": "Acid neutralizing capacity (ANC) test and contribution of each active ingredient (21 C.F.R. 331)", "type": "physicochemical", "method": "Acid Neutralizing Capacity\nReagent standardization: as disclosed above.\nTemperature: as disclosed above.\npH meter: as disclosed above.\nTest suspension: the composition of Ex 1 was well-mixed and exactly 16.0 g (one unit dose) were transferred into a 250 ml glass beaker; sufficient water was added to obtain a total volume of about 70 ml; the resulting suspension was then mixed by means of a magnetic stirrer at 300±30 rpm for one minute. […]\nCalculation of the mEq value: the number of mEq of acid neutralized by the test suspension was calculated as follows: […]\nan accurately measured volume of an aluminum phosphate suspension containing exactly 9.904 g of aluminum phosphate gel, corresponding to the amount present in a one unit dose (16 g) of the antacid composition of Ex 1, were placed into a 250 ml glass beaker; distilled water was added up to a volume of 70 ml and the resulting suspension was mixed by means of a magnetic stirrer at 300±30 rpm for one minute; […]\nCalculation: the percent contribution of each active ingredient in the total antacid composition of Ex 1 was calculated as follows: [formula]"}, "[2]": {"assay": "Labelling of aluminum phosphate gel-containing antacid material with nuclide materials", "type": "physicochemical", "from_the_text": "After testing several nuclide materials having suitable gamma energies in the range of from 60 to 500 keV, such as ^99m technetium-containing materials (^99m Tc-sulfur colloids, ^99m Tc-albumin microspheres, ^99m Tc-dimercaptosuccinic acid complexes, ^99m Tc-polyphosphates, -pyrophosphates and -diphosphonates), it appeared that ^99m Tc-hydroxymethylene diphosphonate (^99m Tc-HMDP) is the most suitable radiopharmaceutical material for labelling aluminum phosphate gel-containing antacid material."}, "[3]": {"settings": "21 C.F.R. 331; cited from earlier work"}, "[4]": {"settings": "oral, cited from earlier work"}},
  "note": "Read-outs that look alike come from different tables or passages of the source.",
  "data": [
    {"molecule": "[O]=[Mg]", "note": "[MgO, magnesium oxide]", "values": [
      {"measurement": "contribution of active ingredient to ANC", "setting": "[1]; amount present in one unit dose of Ex 1", "result": 4.88, "unit": "mEq"},
      {"measurement": "percent contribution of active ingredient to total ANC", "setting": "[1]; relative to total antacid composition of Ex 1", "result": 40, "unit": "%"}
    ]},
    {"molecule": "^99m Tc-hydroxymethylene diphosphonate [^99m Tc-HMDP]", "values": [
      {"measurement": "labelling efficiency", "setting": "[2]", "result": "high labelling efficiency"},
      {"measurement": "adsorption onto the wall of the reaction vessels or tubes", "setting": "[2]; mainly glass", "result": "substantially non-adsorbed"}
    ]},
    {"molecule": "sucralfate", "values": [
      {"measurement": "antacid properties", "setting": "[3]", "result": "devoid of any antacid properties"},
      {"measurement": "Al-adhesiveness duration", "setting": "[4]; no ulceration", "result": "3 to 4", "unit": "h"},
      {"measurement": "Al-adhesiveness duration", "setting": "[4]; ulcerated sites of the gastric mucous membrane", "result": "about 24 h"}
    ]}
  ]
}
